Where two headings read alike, the source gives them in different places.
Tests used:
Original P388 cells = assay: In vivo growth of encapsulated original P388 lymphoma cells in nude mice; settings: for inhibition at 100 mg/kg: Mus musculus, P388, iv
Experimental: (§1) In the experiments that follow, the drugs and other agents tested were administered to the host animal by injection at the various times called for in the protocol being tested. At various periods after treatment, the mice were killed by cervical dislocation. The peritoneal cavity of each mouse was washed with PBS or medium and floating microcapsules were aspirated using a large bore plastic Pasteur pipette. Microcapsules were transferred to 15 ml tubes and washed 3 to 4 times with PBS to remove host peritoneal cells. The washed microcapsules were aspirated into 1 ml serological pipettes, allowed to sediment, and the volume of packed microcapsules was determined. Microcapsules were then transferred to a glas dounce homogenizer (7 ml volume) and disrupted with 3 strokes of an A-tolerance plumger. Cells suspensions were filtered through nylon mesh to remove the disrupted membranes. The suspensions containing tumor cells were centrifuged and the pellet was resuspended in 0.25 to 0.5 ml of complete medium. After mixing equal volumes of cell suspension and trypan blue, viable cell counts were determined using a hemocytometer.
(§2) The number of tumor cells per 1 ml of packed microcapsules was determined as follows: a = ? where b = total number of tumor cells in the suspension, and c = total volume of microcapsules used for the preparation of this suspension.
(§3) By comparing the number of tumor cells in 1 ml of microcapsules derived from non-treated and drug-treated mice, the percent inhibition of tumor cell growth was calculated: [formula] where ac = number of tumor cells from the non-treated control microcapsules, and ae = number of tumor cells from the drug treated microcapsules.
(§4) Since drug-resistance is one of the most important causes of failure in chemotherapy, it is crucial that a predictive assay be able to distinguish between effective and non-effective drugs for particular tumors. […] One day later the mice received by i.v. administration Adriamycin (6 mg/kg), Vinblastin (1 mg/kg) or Cyclophosphamide (100 mg/kg). Five days after administration some of the mice were sacrificed, the microcapsules were recovered and the numbers of tumor cells inside the capsules were determined. The remaining mice received a second administration and the microcapsules were recovered from the remaining mice 3 days afterwards. The results are shown in Table 7 and correlate well with the known characteristics of P388 cell line and its variant.

P388 Resistant Cells = assay: In vivo growth of encapsulated adriamycin-resistant P388 lymphoma cells in nude mice; settings: for inhibition at 100 mg/kg: Mus musculus, P388, iv
Experimental: as §1, §2, §3, §4

[1] = system: human lung carcinoma A549 cells; assay: In vivo susceptibility of encapsulated A549 cells; settings: i.v. days 2, 5, 9; for No. of tumor cells per 1 ml of capsules / percent Inhibition: Adriamycin 6, BCNU 20, CY 100 mg/kg
Experimental: as §1, §2, §3
The sensitivity of human lung carcinoma A549 cells to the drugs was assessed 12 and 14 days after transplantation of encapsulated tumor cells. The treatments were applied i.v. 2, 5 and 9 days after microcapsule transplantation (Table 5).

[2] = system: MOLT-4 human lymphoma cells; assay: In vivo sensitivity of encapsulated MOLT-4 cells in nude mice, NCI schedule; settings: Adriamycin 6 mg/kg, 15 days after transplantation
Experimental: as §1, §2, §3
In the next experiment various drugs were administered in vivo according to schedules and doses typically used for screening antitumor effects of the drugs at the National Cancer Institute, Developmental Therapeutics program.
MOLT-4 human lymphoma cells were encapsulated and transplanted into peritoneum of nude mice. Doses of various drugs were applied i.v. at 1, 5 and 9 days after tumor cell transplantation.

LOX Melanoma cells = settings: i.v.; Adriamycin 6, BCNU 20, CY 100, 5-Fu 60 mg/kg; survival during 3 months of observation; nude mice; cited from earlier work
[3] = system: human colon adenocarcinoma (HT-29) cells; assay: In vivo growth of encapsulated HT-29 cells in C57BL/6 mice
Experimental: as §1, §2, §3
A second human cancer cell line was also used to further analyze in vivo effects of different drugs on the growth of tumors. Encapsulated human colon adenocarcinoma (HT-29) cells were again transplanted into C57BL/6 mice and various drugs were administered after 3 days either by intravenous or by intraperitoneal injection. Animals were sacrificed after 4 days and number of cells per capsule were counted to calculate inhibition rates for the various treatment procedures. […] In fact, 5-FU is a preferred chemotherapeutic agent for patients with gastrointestinal malignancies.

MOLT-4 lymphoma cells = assay: In vivo inhibition of encapsulated Molt-4 lymphoma growth in C57BL/6 mice; design: species or system human
Experimental: as §1, §2, §3
MOLT-4 lymphoma cells were also used in an in vivo assay. As before, the MOLT-4 cells were encapsulated and transplanted i.p. into C57BL/6 mice. On day 1 following the transplantation of the encapsulated cells, the mice were treated i.v. intravenous (i.v.) with BCNU, adriamycin or cyclophosphamide (CY). This approach allowed the testing of cyclophosphamide (CY) which is inefficient in vitro because it must be metabolized to obtain an active cytotoxic derivative. Ten days after transplantation, the encapsulated cells were retrieved and the tumor cells contained therein were counted. […]

human Melanoma LOX cells = assay: In vivo susceptibility of encapsulated LOX melanoma cells in nude mice; settings: for sensitivity of encapsulated LOX cells to the treatment (in words): i.v. days 1, 5, 9; for No. of viable tumor cells per 1 ml. of capsules: i.v. days 1, 5, 9, Adriamycin 6, BCNU 20, CY 100, 5-Fu 60 mg/kg
Experimental: as §1, §2, §3
In this series of experiments, cells of a fourth human cancer type, Melanoma LOX cells, were used. LOX cells have recently been proposed as the model for experimental treatment at the NCI Development Therapeutics Program. Following i.p. inoculation of the suspension of LOX Melanoma cells into nude mice, various drugs were administered i.v. and survival of the treated mice was determined (Schoemaker et al., Proceeding American Association for Cancer Research, 26, 1302, 1985) (mice transplanted with the non-encapsulated tumor cells were considered tumor-free if they survived during 3 months of observation). In parallel experiments encapsulated LOX Melanoma cells were transferred into nude mice and drugs were inoculated i.v. 1, 5 and 9 days at the dose and schedule utilized by the Dr. Shoemaker's procedure.

[4] = system: Human T cell lymphoma (MOLT-4) cells; assay: In vitro drug pretreatment of encapsulated cells, then growth in the peritoneal cavity of mice; type: in vivo
Experimental: The encapsulated tumors are preferably incubated at 37° C in medium for 1 to 2 hours. A 25 percent (v/v) suspension can then be prepared (preferably without bovine serum). The suspension can be inoculated in the peritoneal cavity of the host animal (i.e., with a 16 gauge needle).
as §1, §2, §3
Human T cell lymphoma (MOLT-4) cells were encapsulated according to the procedures described above and incubated in vitro in RPMI I640 medium supplemented with 10 percent fetal calf serum, glutamine and antibiotics for one hour of 37°C. During incubation they were exposed to various concentrations of 1,3-B (2-chloroethyl)-1-nitrosourea (BCNU), 5-fluorouracil (5-FU) and adriamycin. The microcapsules were then washed and implanted into the peritoneal cavity (i.p.) of C57BL/6 mice (Animal Production Area NCI-Frederick Cancer Research Facility) using #18-14 needles. After seven days the mice were sacrificed and their peritoneal cavities were washed with PBS and aspirated to collect the microcapsules in a Pasteur pipette. The microcapsules were washed several times from the host peritoneal cells. The microcapsules from the individual mice were counted by transferring them into wells of a 96 well microplate. Using an inverted microscope, the numbers of microcapsules in each well were counted. Each well was washed out and microcapsules were transferred into the glass homogenizer.
Microcapsules were then disrupted, and the suspension was filtered, centrifugated and reconstituted with PBS. The concentration and total number of cells were counted using a hemocytometer.

[5] = 5 + 3 days after treatment (3 days after second administration), Adriamycin 6, Vinblastin 1, Cyclophosphamide 100 mg/kg i.v.
[6] = 5 days after treatment, i.v. one day after inoculation, Adriamycin 6, Vinblastin 1, Cyclophosphamide 100 mg/kg
[7] = 72 h, 5 + 3 days after treatment (3 days after second administration), Adriamycin 6, Vinblastin 1, Cyclophosphamide 100 mg/kg i.v.
[8] = Mus musculus, MOLT-4, iv, 360 h, i.v. days 1, 5, 9, Cyclophosphamide 100 mg/kg, 5-Fu 60 mg/kg, nude mice
[9] = i.v. days 1, 5, 9, Cyclophosphamide 100 mg/kg, 5-Fu 60 mg/kg, nude mice
[10] = Mus musculus, HT-29, ip, i.p. 3 days after transplantation, 5-Fu 150 mg/kg, CY 250 mg/kg, Adriamycin 20 mg/kg, 4 days
[11] = i.p. 3 days after transplantation, 5-Fu 150 mg/kg, CY 250 mg/kg, Adriamycin 20 mg/kg, 4 days
[12] = Mus musculus, MOLT-4, iv, i.v. on day 1, Adriamycin 10 mg/kg, BCNU 100 mg/kg, CY 200 mg/kg, capsules retrieved ten days after transplantation
[13] = i.v. on day 1, Adriamycin 10 mg/kg, BCNU 100 mg/kg, CY 200 mg/kg, capsules retrieved ten days after transplantation
[14] = 25 µg/ml in vitro for one hour, then 7 days i.p. in C57BL/6 mice
[15] = 100 µg/ml in vitro for one hour, then 7 days i.p. in C57BL/6 mice

| SMILES | No. cells/ml (Original P388 cells; [5]) | No. cells/ml (Original P388 cells; [6]) | No. cells/ml (P388 Resistant Cells; [5]) | No. cells/ml (P388 Resistant Cells; [6]) | No. of tumor cells per 1 ml of capsules ([1]; 12 days after transplantation) | percent Inhibition ([1]; 12 days after transplantation) [%] | No. of tumor cells per 1 ml of capsules ([1]; 14 days after transplantation) | percent Inhibition ([1]; 14 days after transplantation) [%] | No of viable tumor cells per 1 ml of capsules [2, 9] | % survived mice transplanted with nonencapsulated tumor cells (LOX Melanoma cells) [%] | No. of cells per capsule [3, 11] | Total No. of tumor cells [3, 11] | No. of cells per capsule (MOLT-4 lymphoma cells; [13]) | Total No. of tumor cells (MOLT-4 lymphoma cells; [13]) | sensitivity of encapsulated LOX cells to the treatment (in words) (human Melanoma LOX cells) | No. of viable tumor cells per 1 ml. of capsules (human Melanoma LOX cells) | No. of tumor cells per capsule [4, 14] | No. of tumor cells per capsule [4, 15] | also measured |
| --- | --- | --- | --- | --- | --- | --- | --- | --- | --- | --- | --- | --- | --- | --- | --- | --- | --- | --- | --- |
| O=P1(N(CCCl)CCCl)NCCCO1 (centres unmarked) [CY, cyclophosphamide] | 1.3 x 10^6 | 0.4 x 10^6 | 1.1 x 10^6 | 0.4 x 10^6 | 13.5 x 10^5 | 78 | 39.0 x 10^5 | 53 | 1.9 x 10^6 | 40 | 1.6 x 10^4 | 1.1 x 10^6 | 171 | 10 x 10^4 | most sensitive | 0.7 x 10^5 |  |  | inhibition at 100 mg/kg (Original P388 cells; [7]): 97%; inhibition at 100 mg/kg (Original P388 cells; [6]): 98%; inhibition at 100 mg/kg (P388 Resistant Cells; [7]): 96%; inhibition at 100 mg/kg (P388 Resistant Cells; Cyclophosphamide 100 mg/kg i.v., both time points): 96 to 98%; inhibition at 100 mg/kg (P388 Resistant Cells; [6]): 98%; inhibition at 100 mg/kg [2, 8]: 97%; inhibition at 250 mg/kg [3, 10]: 20%; inhibition at 200 mg/kg (MOLT-4 lymphoma cells; [12]): 93.7%; reduction of the number of viable tumor cells in the capsules (in words) (MOLT-4 lymphoma cells; i.v. on day 1, ten days after transplantation): more effective than BCNU |
| O=c1[nH]cc(F)c(=O)[nH]1 [5-Fu, 5-fluorouracil] |  |  |  |  |  |  |  |  | 41.0 x 10^6 | 0 | 0.6 x 10^4 | 0.6 x 10^6 |  |  | least efficient | 29 x 10^5 | 3 x 10^3 | 10^2 | inhibition of tumor cell proliferation (in words) ([2]; 5-FU 60 mg/kg i.v. days 1, 5, 9): significantly less efficient; inhibition at 60 mg/kg [2, 8]: 30%; inhibition at 25 µg/mL ([4]; Mus musculus, MOLT-4, ip, 25 µg/ml in vitro for one hour, then 7 days i.p. in C57BL/6 mice, read-out: % Inhibition): 40%; inhibition at 100 µg/mL ([4]; Mus musculus, MOLT-4, ip, 100 µg/ml in vitro for one hour, then 7 days i.p. in C57BL/6 mice, read-out: % Inhibition): 98%; inhibition at 150 mg/kg [3, 10]: 70%; sensitivity of encapsulated HT-29 cells (in words) ([3]; in vivo): more sensitive to 5-FU than to the other drugs tested |
| CCC1(O)CC2CN(CCc3c([nH]c4ccccc34)C(C(=O)OC)(c3cc4c(cc3OC)N(C)C3C(O)(C(=O)OC)C(OC(C)=O)C5(CC)C=CCN6CCC43C65)C2)C1 (centres unmarked) [Vinblastin] | 6 x 10^6 | 9 x 10^6 | 23 x 10^6 | 15 x 10^6 |  |  |  |  |  |  |  |  |  |  |  |  |  |  | % Inhibition (Original P388 cells; [5]): 89%; % Inhibition (Original P388 cells; [6]): 60%; % Inhibition (P388 Resistant Cells; [5]): 21%; % Inhibition (P388 Resistant Cells; [6]): 12%; inhibiting the growth of the drug-resistant variant (in words) (P388 Resistant Cells; Adriamycin 6 mg/kg, Vinblastin 1 mg/kg i.v.): Neither Adriamycin nor Vinblastin in the doses administered was effective |
| O=NN(CCCl)C(=O)NCCCl [BCNU, 1,3-B (2-chloroethyl)-1-nitrosourea] |  |  |  |  | 7.0 x 10^5 | 88 | 15.7 x 10^5 | 81 |  | 50 |  |  | 1222 | 27 x 10^4 | most sensitive | 2 x 10^5 | 1 x 10^4 | 0.1 x 10^4 | reduction of the numbers of tumor cells (in words) [1]: more efficient in this respect than CY; No. of tumor cells per capsule ([4]; 6 µg/ml in vitro for one hour, then 7 days i.p. in C57BL/6 mice): 1 x 10^4; inhibition at 6 µg/mL ([4]; Mus musculus, MOLT-4, ip): 86%; inhibition at 25 µg/mL ([4]; Mus musculus, MOLT-4, ip): 86%; inhibition at 100 µg/mL ([4]; Mus musculus, MOLT-4, ip): 98%; inhibition at 100 mg/kg (MOLT-4 lymphoma cells; [12]): 55% |
